Laboratory results taken from the supplement of paper PMC10307832.

Columns and labels:
Experiment in all cases: relative viability (nuclei count vs DMSO), 5 days (fraction); higher = more cells survive
[1] = compound: Cc1ccc(C(=O)Nc2cccc(C(F)(F)F)c2)cc1Nc1cncc(C(N)=O)c1 [ALW-II-49-7] + C[C@@H](Oc1cc(-c2cnn(C3CCNCC3)c2)cnc1N)c1c(Cl)ccc(F)c1Cl [Crizotinib] (partner 1 µM)
Method in brief: (§1)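 For relative viability, nuclei counts in treated wells were divided by those in vehicle wells. Lung cancer cell lines had been pin-tool dosed in 1536-well plates the day after seeding and cultured for 5 days, then fixed and stained in one step (final 0.05% Triton X-100, 1% formaldehyde, 1 ug/ml Hoechst) and imaged at 4×. Doses were one drug alone or a fixed anchor-drug dose plus five library-drug doses (not always all listed) in √10 steps, and values are duplicate-plate medians.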

[2] = compound: Cc1nc(Nc2ncc(C(=O)Nc3c(C)cccc3Cl)s2)cc(N2CCN(CCO)CC2)n1 [Dasatinib] + O=C(CCCCCCC(=O)Nc1ccccc1)NO [Vorinostat] (partner 1 µM)
Method in brief: as §1

[3] = compound: Cc1ccc(C(=O)Nc2cccc(C(F)(F)F)c2)cc1Nc1cncc(C(N)=O)c1 [ALW-II-49-7] + Cc1cc(Nc2cc(N3CCN(C)CC3)nc(Sc3ccc(NC(=O)C4CC4)cc3)n2)n[nH]1 [Tozasertib] (partner 0.1 µM)
Method in brief: as §1

[4] = compound: Cc1nc(Nc2ncc(C(=O)Nc3c(C)cccc3Cl)s2)cc(N2CCN(CCO)CC2)n1 [Dasatinib] + CC(C)C[C@H](NC(=O)[C@H](Cc1ccccc1)NC(=O)c1cnccn1)B(O)O [Bortezomib] (partner 0.002 µM)
Method in brief: as §1

Cell Line	relative viability ([1]; first compound 0.08 µM)	relative viability ([1]; first compound 0.253 µM)	relative viability ([1]; first compound 0.8 µM)	relative viability ([1]; first compound 2.53 µM)	relative viability ([1]; first compound 8 µM)	relative viability ([2]; first compound 0.005 µM)	relative viability ([2]; first compound 0.01581 µM)	relative viability ([2]; first compound 0.05 µM)	relative viability ([2]; first compound 0.1581 µM)	relative viability ([2]; first compound 0.5 µM)	relative viability ([3]; first compound 0.08 µM)	relative viability ([3]; first compound 0.253 µM)	relative viability ([3]; first compound 0.8 µM)	relative viability ([3]; first compound 2.53 µM)	relative viability ([3]; first compound 8 µM)	relative viability ([4]; first compound 0.005 µM)	relative viability ([4]; first compound 0.01581 µM)	relative viability ([4]; first compound 0.05 µM)	relative viability ([4]; first compound 0.1581 µM)	relative viability ([4]; first compound 0.5 µM)
RERF-LC-KJ	0.831	0.924	0.992	0.831	0.741	0.667	0.602	0.585	0.491	0.416	0.442	0.524	0.461	0.506	0.321	1.1	0.765	0.965	0.955	0.77
NCI-H1755	0.917	0.859	0.753	0.79	0.69	0.655	0.718	0.568	0.421	0.374	0.654	0.558	0.463	0.483	0.466	0.842	0.759	0.645	0.538	0.297
NCI-H2126	0.857	0.976	1.06	0.998	0.987	0.796	0.597	0.755	0.521	0.312	0.856	0.885	0.826	0.197	0.786	1.08	1.07	1.16	0.988	0.587
EPLC-272H	0.869	0.754	0.85	1.15	1	0.539	0.401	0.335	0.276	0.162	0.127	–	0.257	0.298	0.27	0.921	0.89	0.808	0.864	0.429
NCI-H1975	0.838	1.04	0.852	0.912	0.893	0.668	0.613	0.654	0.356	0.299	0.743	1.05	0.667	0.508	0.243	0.393	0.279	0.348	0.212	0.22
NCI-H3122	0.309	0.272	0.271	0.331	0.307	1.04	0.949	0.986	1.02	0.614	0.437	0.202	0.371	–	0.373	0.988	0.94	1.02	1.05	0.815
COR-L 105	0.737	0.805	0.864	0.653	0.72	0.891	0.58	0.683	0.445	0.363	0.38	0.263	0.346	0.336	0.315	0.611	0.51	0.498	0.318	0.273
BEN	0.722	0.866	0.81	–	0.834	0.577	0.445	0.417	0.371	0.368	0.331	0.524	0.512	0.515	0.632	0.628	0.439	0.425	0.315	0.362
NCI-H1915	0.896	0.863	0.828	0.682	0.572	0.539	0.483	0.446	0.374	0.119	0.398	0.457	0.42	0.341	0.277	0.982	0.809	0.876	0.593	0.298
NCI-H650	0.679	0.699	0.62	0.43	0.516	0.413	0.564	0.381	0.384	0.287	0.719	0.737	0.673	0.577	0.481	0.867	0.939	0.73	0.559	0.451
NCI-H1650	0.946	0.859	0.931	1.01	1.14	0.591	0.61	0.568	0.406	0.278	0.364	0.437	0.374	0.313	0.293	0.227	0.195	0.193	0.217	0.2
NCI-H2009	1.02	1.02	0.964	0.835	0.729	0.75	0.681	0.762	0.426	0.133	0.771	0.804	0.707	0.653	0.562	1.13	0.97	0.884	0.354	0.173
COR-L23	0.688	0.601	0.626	0.614	0.793	0.419	0.342	0.323	0.237	0.24	0.206	0.193	0.17	0.15	0.15	0.938	0.849	0.862	0.654	0.646
NCI-H460	1	0.877	0.802	1.01	0.793	0.659	0.619	0.877	0.475	0.315	0.354	0.597	0.421	0.273	0.0328	0.97	0.79	0.701	0.736	0.49
LCLC-103H	1.04	1.06	1.07	1.02	1.18	0.852	0.787	0.694	0.582	0.293	0.451	0.453	0.486	0.451	0.389	0.987	1.06	1	0.918	0.613
HCC-827	0.898	0.913	0.886	0.941	0.906	0.787	0.744	0.742	0.615	0.157	0.427	0.449	0.4	0.397	0.415	1.08	1.03	1.07	0.981	0.48

Cell Line	relative viability ([1]; first compound 0.08 µM)	relative viability ([1]; first compound 0.253 µM)	relative viability ([1]; first compound 0.8 µM)	relative viability ([1]; first compound 2.53 µM)	relative viability ([1]; first compound 8 µM)	relative viability ([2]; first compound 0.005 µM)	relative viability ([2]; first compound 0.01581 µM)	relative viability ([2]; first compound 0.05 µM)	relative viability ([2]; first compound 0.1581 µM)	relative viability ([2]; first compound 0.5 µM)	relative viability ([3]; first compound 0.08 µM)	relative viability ([3]; first compound 0.253 µM)	relative viability ([3]; first compound 0.8 µM)	relative viability ([3]; first compound 2.53 µM)	relative viability ([3]; first compound 8 µM)	relative viability ([4]; first compound 0.005 µM)	relative viability ([4]; first compound 0.01581 µM)	relative viability ([4]; first compound 0.05 µM)	relative viability ([4]; first compound 0.1581 µM)	relative viability ([4]; first compound 0.5 µM)
NCI-H322M	0.928	0.689	0.775	1.04	0.71	0.668	0.535	0.426	0.311	0.258	0.436	0.484	0.476	0.411	0.367	1.28	1.25	1.32	0.966	0.177
NCI-H1666	0.948	0.964	0.909	1.06	0.965	1.2	1.06	1.23	1.07	0.761	0.609	0.603	0.569	0.612	0.498	0.763	0.663	0.718	0.582	0.288
NCI-H1437	0.897	0.865	–	0.869	0.896	0.972	1.04	1.03	0.914	0.59	0.35	0.387	0.383	0.41	0.391	0.509	0.363	0.469	0.487	0.138
NCI-H1355	1	1.03	1.11	0.928	0.935	0.618	0.54	0.655	0.445	0.331	0.523	0.519	0.445	0.404	0.434	1.12	1.11	1.06	0.981	0.779
SK-LU-1	0.863	0.898	0.988	0.853	0.584	0.686	0.647	0.473	0.278	0.246	0.323	0.391	0.295	0.289	0.242	0.954	0.777	0.726	0.33	0.406
NCI-H2228	0.541	0.505	0.423	0.483	0.27	0.618	0.564	0.333	0.387	0.388	0.261	0.263	0.277	0.171	0.22	0.645	0.988	0.888	0.691	0.47
NCI-H2347	0.683	0.69	0.676	0.671	0.583	0.422	0.298	0.363	0.263	0.238	0.422	0.543	0.463	0.563	0.57	0.732	0.857	0.929	0.324	0.368
A-427	1.01	0.816	0.855	0.878	0.969	0.831	0.766	0.793	0.517	0.495	0.18	0.204	0.21	0.177	0.204	1	0.983	0.839	0.663	0.524
HCC-366	0.777	0.592	0.382	0.682	0.609	0.377	0.225	0.312	0.238	0.22	0.168	0.17	0.0962	0.0839	0.0614	0.989	0.738	0.637	0.632	0.407
HCC-78	0.335	0.321	0.32	0.297	0.371	0.373	0.354	0.324	0.336	0.219	0.482	0.396	–	0.43	0.505	0.419	0.381	0.463	0.385	0.225
PC-14	0.911	0.953	0.841	0.863	0.866	0.653	0.699	0.562	0.318	0.0563	0.584	0.657	0.503	0.288	0.492	0.822	0.96	0.969	0.585	0.35
NCI-H2087	1.07	0.843	0.957	0.758	0.851	0.954	0.494	0.778	0.714	0.156	0.222	0.266	0.271	0.162	0.16	0.751	0.769	0.869	0.815	0.665
HOP-62	0.855	1.05	1.02	0.563	0.817	0.738	0.606	0.642	0.293	0.132	0.278	0.341	0.368	0.358	0.289	0.875	0.674	0.643	0.864	0.39
EKVX	0.989	0.79	0.969	0.718	0.818	0.725	0.642	0.6	0.355	0.267	0.323	0.413	0.344	0.322	0.381	0.929	0.807	0.87	0.501	0.146
EMC-BAC-2	0.677	0.728	0.737	0.588	0.509	0.392	0.308	0.273	0.22	0.172	0.267	0.273	0.276	0.203	0.199	1.06	0.876	0.734	0.634	0.367
HARA	0.914	0.982	1.01	1.25	1.23	0.508	0.474	0.438	0.272	0.274	0.0918	0.121	0.114	0.0912	0.0839	1.19	0.881	0.897	0.501	0.184
